Columns and labels:
Test in all cases: relative viability (nuclei count vs DMSO), 5 days (fraction); higher = more cells survive
Bexarotene + Bortezomib = compound: C=C(c1ccc(C(=O)O)cc1)c1cc2c(cc1C)C(C)(C)CCC2(C)C [Bexarotene] + CC(C)C[C@H](NC(=O)[C@H](Cc1ccccc1)NC(=O)c1cnccn1)B(O)O [Bortezomib] (partner 0.002 µM)
How it was run: (§1)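 Each reported value is a median over duplicate plates. It expresses relative viability: treated-well nuclei count divided by vehicle-well nuclei count. Lung cancer cell lines in 1536-well plates were dosed by pin tool a day after seeding, alone with one drug or with a fixed anchor-drug dose plus five library-drug doses (not always all listed) in √10 steps, and nuclei were counted after 5 days.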

Bexarotene + Dasatinib = compound: C=C(c1ccc(C(=O)O)cc1)c1cc2c(cc1C)C(C)(C)CCC2(C)C [Bexarotene] + Cc1nc(Nc2ncc(C(=O)Nc3c(C)cccc3Cl)s2)cc(N2CCN(CCO)CC2)n1 [Dasatinib] (partner 0.075 µM)
How it was run: as §1

Bexarotene + Luminespib = compound: C=C(c1ccc(C(=O)O)cc1)c1cc2c(cc1C)C(C)(C)CCC2(C)C [Bexarotene] + CCNC(=O)c1noc(-c2cc(C(C)C)c(O)cc2O)c1-c1ccc(CN2CCOCC2)cc1 [Luminespib] (partner 0.01 µM)
How it was run: as §1

Bexarotene + Palbociclib = compound: C=C(c1ccc(C(=O)O)cc1)c1cc2c(cc1C)C(C)(C)CCC2(C)C [Bexarotene] + CC(=O)c1c(C)c2cnc(Nc3ccc(N4CCNCC4)cn3)nc2n(C2CCCC2)c1=O [Palbociclib] (partner 0.5 µM)
How it was run: as §1

Cell Line | relative viability (Bexarotene + Bortezomib; first compound 0.08 µM) | relative viability (Bexarotene + Bortezomib; first compound 0.253 µM) | relative viability (Bexarotene + Bortezomib; first compound 0.8 µM) | relative viability (Bexarotene + Bortezomib; first compound 2.53 µM) | relative viability (Bexarotene + Bortezomib; first compound 8 µM) | relative viability (Bexarotene + Dasatinib; first compound 0.08 µM) | relative viability (Bexarotene + Dasatinib; first compound 0.253 µM) | relative viability (Bexarotene + Dasatinib; first compound 0.8 µM) | relative viability (Bexarotene + Dasatinib; first compound 2.53 µM) | relative viability (Bexarotene + Dasatinib; first compound 8 µM) | relative viability (Bexarotene + Luminespib; first compound 0.08 µM) | relative viability (Bexarotene + Luminespib; first compound 0.253 µM) | relative viability (Bexarotene + Luminespib; first compound 0.8 µM) | relative viability (Bexarotene + Luminespib; first compound 2.53 µM) | relative viability (Bexarotene + Luminespib; first compound 8 µM) | relative viability (Bexarotene + Palbociclib; first compound 0.08 µM) | relative viability (Bexarotene + Palbociclib; first compound 0.253 µM) | relative viability (Bexarotene + Palbociclib; first compound 0.8 µM) | relative viability (Bexarotene + Palbociclib; first compound 2.53 µM) | relative viability (Bexarotene + Palbociclib; first compound 8 µM)
NCI-H2126 | 1.13 | 1.17 | 1.08 | 1.12 | 1.11 | 0.573 | 0.588 | 0.586 | 0.584 | 0.602 | 0.929 | 0.843 | 0.924 | 0.916 | 0.823 | 0.354 | 0.346 | 0.325 | 0.331 | 0.365
LXF-289 | 1.15 | 1.08 | 1.14 | 1.09 | 1.16 | 0.213 | 0.195 | 0.179 | 0.127 | 0.155 | 0.8 | 0.824 | 0.798 | 0.874 | 0.8 | 0.636 | 0.63 | 0.605 | 0.593 | 0.639
NCI-H460 | 1.16 | 1.09 | 0.961 | 1.14 | 1.04 | 0.615 | 0.531 | 0.565 | 0.512 | 0.505 | 0.0252 | 0.0297 | 0.0376 | 0.0318 | 0.0222 | 0.147 | 0.156 | 0.237 | 0.105 | 0.158
NCI-H2009 | 1.16 | 1.27 | 1.13 | 1.08 | 1 | 0.323 | 0.33 | 0.301 | 0.322 | 0.359 | 1.19 | 1.18 | 1.12 | 1.2 | 1.02 | 0.32 | 0.239 | 0.201 | 0.226 | 0.322

Source: the supplement of paper PMC10307832
